Several values for one entry are separate records, joined by “and”; a condition that tells them apart may be missing. Equal values may be shown once.
What was measured:
σ-1 receptors [1] = target: T1, σ-1 receptors (Oryctolagus cuniculus, UniProt G1SD54); assay: [3H](+)-pentazocine receptor binding and competitive binding on irido-ciliary body membranes; design: species or system rabbit (New Zealand albino)
T1 construct: cell membranes obtained from the irido-ciliary body complex; from tissue; host or cells: rabbit irido-ciliary body, P2 membrane fraction
Excerpt: In order to identify the presence of a receptor sites in the eye the technique of “receptor binding” has been exploited. The latter has been carried out on cell membranes obtained from the irido-ciliary body complex. The irido-ciliary body complex had been explanted, after sacrifice, from male albino rabbits of the New Zealand strain. The tissue was homogenised in buffer and a fraction rich in cell membrane proteins was isolated, obtained by centrifugation. […] Aliquots of the said fraction of the homogenate containing 300 μg of total proteins were incubated with scalar amounts of [^3H](+)-pentazocine (which is used, for experimental purposes only, as a a ligand). The reaction was carried out at 37° C. for 150 minutes and then, after filtering, the radioactivity left on the filters was measured by liquid scintillation.

intraocular pressure [2] = assay: Intraocular pressure in New Zealand albino rabbits after instillation of a σ ligand; type: in vivo, rabbit (New Zealand albino); details: 1% preparation, 50 μl in right conjunctival fornix; 60 minutes after instillation; p<0.01
Method: A 1% preparation of NANM was administered (50 μl) in the conjunctival fornix of the right eye of male albino rabbits of the New Zealand strain, after measuring the (baseline) intraocular pressure.

[3] = tested on: intraocular pressure of rabbits with ocular hypertension; assay: Intraocular pressure in rabbits with ocular hypertension induced by α-chymotrypsin; type: in vivo, rabbit (Vienna Blue, pigmented)
Method: Rabbits of the same type as those described in the previous section were used for the following tests.
In the rabbit, the injection of this enzyme in the posterior chamber causes, after one month from the administration, an effect of ocular hypertension.
At the end of the quarantine period the rabbits were anaesthetised by intramuscular administration of ketamine hydrochloride and xylazine hydrochloride (RBI). The right eye was gently pushed outwardly after instilling 25 μl of Novesine® eye-drops, containing oxybuprocaine as an anaesthetic; then, a sterile solution of σ-chymotrypsin (SIGMA, Milan; 150 units in 100 μl of physiologic sterile solution) was injected in the posterior chamber of the right eye by means of a 30G sterile needle. After the administration of the enzyme, the eye was thoroughly washed with physiologic sterile solution in order to remove any traces of α-chymotrypsin which could damage the ocular tissues. Then, 2 drops of a commercial ophthalmic antibiotic solution (Colbiocin®, SIFI S.p.A., containing chloramphenicol, rolitetracycline, colistin methanesulphonate) were instilled. The treatment was carried out 3 times a day (at 8.00 a.m., 12.00 a.m. and 6.00 p.m.) for one week after the administration of α-chymotrypsin. The rabbits were employed in the tests after one month from the induction of ocular hypertension by means of the enzyme.
The rabbits, divided also in this case in groups of 4 animals, were treated by instillation of 50 μl of the product under test in the right conjunctival fornix.
The intraocular pressure in the treated eye was measured, according to the same procedure as in the previous tests, 15 minutes before the instillation of the eye-drops and 30, 60, 90, 120, 180 and 240 minutes after. The values obtained were statistically analysed according to the criteria mentioned in the foregoing.
The experimental conditions were exactly the same as before.

intraocular pressure [4] = details: Payene et al. 1990; cited from earlier work
[5] = tested on: intraocular pressure of rabbits showing normal baseline intraocular pressure; assay: Intraocular pressure in rabbits with normal intraocular pressure after topical instillation; type: in vivo, rabbit (Vienna Blue, pigmented)
Method: The effects of the agent of the invention on the intraocular pressure of rabbits showing normal baseline intraocular pressure were evaluated in comparison with the action of a placebo, and with that of various other calcium channel blocking agents. Female pigmented rabbits of the Vienna Blue strain were used (supplied by Charles River Italiana, of Calco (CO)). The age of the animals at the time of starting the experimentation was 9 weeks, and their weight was 2.0-2.5 kg.
The choice of a species with pigmented iris is due to the fact that the latter represents a reliable model for the evaluation of possible modifications of the intraocular pressure caused by the products under test. The strain chosen is genetically defined, so as to limit to a minimum the variability of the biological characteristics between one animal and the other.
The animals were kept in rooms maintained under constant and controlled conditions of temperature and humidity, illuminated for 12 hours a day with artificial light and with continuous renovation of the air. The feed consisted of a standard diet having a constant and known composition, and both feed and water were available ad libitum during the whole period of the test. The rabbits were stabled for 21 days before starting the test, so as to allow a sufficient acclimatation and to suitably evaluate the health conditions of the rabbits. Each experimental group consisted of 4 animals, which were allotted to the treatment groups in a randomised way.
Each different group of animals received, by instillation in the right conjunctival fornix, 50 μl of the following products:
The weight concentrations of the various agents under test are chosen so as to correspond to the same molar concentration.
The pressure in the treated eye was measured by flattening tonometer (TonopenXL®, Mentor), 15 minutes before the instillation of the eyerops (time 0) and then 30, 60, 90, 120, 180 and 240 minutes after. As a local anaesthetic, 5 minutes before carrying out each measurement 25 μl of a commercial ophthalmic solution containing 0.4% oxybuprocaine hydrochloride (Novesine®, Sandoz) was instilled. To carry out the measurement the rabbits were placed in a suitably designed cage, that prevents any sudden movement of the animal under test.
For each animal and at each of the times listed above the average of three subsequent measurements was calculated and recorded, each one said measurements being made after 1 minute from the previous one. The intraocular pressure values at the various times were compared with the values obtained before the treatment, by means of the Student's “t” test. The comparisons between different groups were made by processing the data by the variance analysis (ANOVA) and, where possible, by the Student's “t” test for the comparison of two different experimental groups. Values of p<0.05 were considered to be statistically significant.

σ-1 receptors [6] = target: T1, σ-1 receptors; assay: Inhibition of 3H(+)-N-allyl-nor-methazocine binding to irido-ciliary body membranes; design: species or system rabbit (New Zealand albino); details: rabbit irido-ciliary body P2 membranes, 300 μg protein, 37° C., 150 minutes, duplicate
Method: The receptor binding technique was carried out on cell membranes obtained from the irido-ciliary body complex explanted, after sacrifice, from male albino rabbits of the New Zealand strain (Charles River Italiana, of Calco (CO)). The tissue was homogenised in buffer and the P2, fraction, rich in cell membrane proteins, was isolated. […] The La total protein concentration was determined with the Lowry method.
The non specific binding was evaluated in presence of haloperidol.
All tests were carried out in duplicate. The reaction was maintained at 37° C. for 150 minutes, followed by filtration on WhatmannGF/B filters. The radioactivity left on the filters was measured by liquid scintillation spectrometry.

[7] = 50 μl eye-drops, 0.050% flunarizine, equimolar comparators, 0.5% timolol

T1 sequence (G1SD54 1-223): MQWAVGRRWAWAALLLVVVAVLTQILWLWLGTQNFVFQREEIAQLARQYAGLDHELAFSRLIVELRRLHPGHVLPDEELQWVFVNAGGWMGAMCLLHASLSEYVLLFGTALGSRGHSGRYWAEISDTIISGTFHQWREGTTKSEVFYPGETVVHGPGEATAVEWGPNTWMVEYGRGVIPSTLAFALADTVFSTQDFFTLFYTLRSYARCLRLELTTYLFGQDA

In the case of `C=CCN1CC[C@@]2(C)c3cc(O)ccc3C[C@@H]1[C@@H]2C` [NANM, (+)-N-allil-nor-meth-azocine], the “Classes of σ receptor sites bound (Hill coefficient analysis)” value (σ-1 receptors [1]; competitive binding) is reported as “interacts with one only class”, the “Displacement of [3H](+)-pentazocine in competitive binding” value (σ-1 receptors [1]; constant amount of radioligand, scalar amounts of competitor) is reported as “shift the radioactive ligands from the receptor sites” and the “Intraocular pressure versus vehicle” value (intraocular pressure [2]) is reported as “significantly reduced”.

With `COc1ccc([C@@H]2Sc3ccccc3N(CCN(C)C)C(=O)[C@@H]2OC(C)=O)cc1` [diltiazem] the “Effect on intraocular pressure in rabbits with ocular hypertension, in words” value [3, 7] was “do not show any significant reduction”, the “Intraocular pressure (mmHg) at the time (min): 30, average ± S.D.” value ([3]; Table 3, hypertensive rabbits, average ± S.D. of 4 rabbits, 30 min after instillation, 50 μl eye-drops: 0.050% flunarizine, 0.056% verapamil, 0.051% diltiazem, 0.043% nifedipine) was 49.5 ± 5.80 mmHg and the “Intraocular pressure (mmHg) at the time (min): 60, average ± S.D.” value ([3]; Table 3, hypertensive rabbits, average ± S.D. of 4 rabbits, 60 min after instillation, 50 μl eye-drops: 0.050% flunarizine, 0.056% verapamil, 0.051% diltiazem, 0.043% nifedipine) was 47.5 ± 5.80 mmHg. The “Intraocular pressure (mmHg) at the time (min): 90, average ± S.D.” value ([3]; Table 3, hypertensive rabbits, average ± S.D. of 4 rabbits, 90 min after instillation, 50 μl eye-drops: 0.050% flunarizine, 0.056% verapamil, 0.051% diltiazem, 0.043% nifedipine) was 48.2 ± 5.90 mmHg, the “Intraocular pressure (mmHg) at the time (min): 120, average ± S.D.” value ([3]; Table 3, hypertensive rabbits, average ± S.D. of 4 rabbits, 120 min after instillation, 50 μl eye-drops: 0.050% flunarizine, 0.056% verapamil, 0.051% diltiazem, 0.043% nifedipine) was 49.5 ± 5.68 mmHg and the “Intraocular pressure (mmHg) at the time (min): 180, average ± S.D.” value ([3]; Table 3, hypertensive rabbits, average ± S.D. of 4 rabbits, 180 min after instillation, 50 μl eye-drops: 0.050% flunarizine, 0.056% verapamil, 0.051% diltiazem, 0.043% nifedipine) was 49.0 ± 5.71 mmHg. The “Intraocular pressure (mmHg) at the time (min): 240, average ± S.D.” value ([3]; Table 3, hypertensive rabbits, average ± S.D. of 4 rabbits, 240 min after instillation, 50 μl eye-drops: 0.050% flunarizine, 0.056% verapamil, 0.051% diltiazem, 0.043% nifedipine) was 48.7 ± 6.13 mmHg, the “Intraocular pressure (mmHg) at the time (min): 0, average ± S.D.” value ([3]; Table 3, hypertensive rabbits, average ± S.D. of 4 rabbits, time 0 = 15 min before instillation (baseline), 50 μl eye-drops: 0.050% flunarizine, 0.056% verapamil, 0.051% diltiazem, 0.043% nifedipine) was 49.0 ± 5.71 mmHg and the “Intraocular pressure (mmHg) at the time (min): 30” value ([3]; Table 3, hypertensive rabbits, individual rabbit, right eye, 30 min after instillation, 50 μl eye-drops: 0.050% flunarizine, 0.056% verapamil, 0.051% diltiazem, 0.043% nifedipine) was 55 mmHg and 53 mmHg and 48 mmHg and 42 mmHg. For the same compound, the “Intraocular pressure (mmHg) at the time (min): 60” value ([3]; Table 3, hypertensive rabbits, individual rabbit, right eye, 60 min after instillation, 50 μl eye-drops: 0.050% flunarizine, 0.056% verapamil, 0.051% diltiazem, 0.043% nifedipine) was 53 mmHg and 51 mmHg and 46 mmHg and 40 mmHg, the “Intraocular pressure (mmHg) at the time (min): 90” value ([3]; Table 3, hypertensive rabbits, individual rabbit, right eye, 90 min after instillation, 50 μl eye-drops: 0.050% flunarizine, 0.056% verapamil, 0.051% diltiazem, 0.043% nifedipine) was 54 mmHg and 52 mmHg and 46 mmHg and 41 mmHg and the “Intraocular pressure (mmHg) at the time (min): 120” value ([3]; Table 3, hypertensive rabbits, individual rabbit, right eye, 120 min after instillation, 50 μl eye-drops: 0.050% flunarizine, 0.056% verapamil, 0.051% diltiazem, 0.043% nifedipine) was 56 mmHg and 52 mmHg and 47 mmHg and 43 mmHg. The “Intraocular pressure (mmHg) at the time (min): 180” value ([3]; Table 3, hypertensive rabbits, individual rabbit, right eye, 180 min after instillation, 50 μl eye-drops: 0.050% flunarizine, 0.056% verapamil, 0.051% diltiazem, 0.043% nifedipine) was 56 mmHg and 51 mmHg and 48 mmHg and 43 mmHg, the “Intraocular pressure (mmHg) at the time (min): 240” value ([3]; Table 3, hypertensive rabbits, individual rabbit, right eye, 240 min after instillation, 50 μl eye-drops: 0.050% flunarizine, 0.056% verapamil, 0.051% diltiazem, 0.043% nifedipine) was 55 mmHg and 52 mmHg and 47 mmHg and 41 mmHg and the “Intraocular pressure (mmHg) at the time (min): 0” value ([3]; Table 3, hypertensive rabbits, individual rabbit, right eye, time 0 = 15 min before instillation (baseline), 50 μl eye-drops: 0.050% flunarizine, 0.056% verapamil, 0.051% diltiazem, 0.043% nifedipine) was 55 mmHg and 52 mmHg and 47 mmHg and 42 mmHg. For the same compound, the “Intraocular pressure after topical administration to rabbits” value (intraocular pressure [4]) was “did not detect any significant effect”, the “Effect on intraocular pressure in rabbits with normal pressure, in words” value [5, 7] was “neither the verapamil formulation nor the diltiazem formulation, both using the same vehicle as MEG 01, did produce any intraocular pressure decrease” and the “Intraocular pressure (mmHg) at the time (min): 30, average ± S.D.” value ([5]; Table 1, average ± S.D. of 4 rabbits, 30 min after instillation, 50 μl eye-drops: 0.050% flunarizine, 0.056% verapamil, 0.051% diltiazem, 0.043% nifedipine) was 15.2 ± 1.2 mmHg. The “Intraocular pressure (mmHg) at the time (min): 60, average ± S.D.” value ([5]; Table 1, average ± S.D. of 4 rabbits, 60 min after instillation, 50 μl eye-drops: 0.050% flunarizine, 0.056% verapamil, 0.051% diltiazem, 0.043% nifedipine) was 14.7 ± 0.9 mmHg, the “Intraocular pressure (mmHg) at the time (min): 90, average ± S.D.” value ([5]; Table 1, average ± S.D. of 4 rabbits, 90 min after instillation, 50 μl eye-drops: 0.050% flunarizine, 0.056% verapamil, 0.051% diltiazem, 0.043% nifedipine) was 14.7 ± 0.9 mmHg and the “Intraocular pressure (mmHg) at the time (min): 120, average ± S.D.” value ([5]; Table 1, average ± S.D. of 4 rabbits, 120 min after instillation, 50 μl eye-drops: 0.050% flunarizine, 0.056% verapamil, 0.051% diltiazem, 0.043% nifedipine) was 15 ± 0.5 mmHg. For the same compound, the “Intraocular pressure (mmHg) at the time (min): 180, average ± S.D.” value ([5]; Table 1, average ± S.D. of 4 rabbits, 180 min after instillation, 50 μl eye-drops: 0.050% flunarizine, 0.056% verapamil, 0.051% diltiazem, 0.043% nifedipine) was 16.2 ± 0.95 mmHg, the “Intraocular pressure (mmHg) at the time (min): 240, average ± S.D.” value ([5]; Table 1, average ± S.D. of 4 rabbits, 240 min after instillation, 50 μl eye-drops: 0.050% flunarizine, 0.056% verapamil, 0.051% diltiazem, 0.043% nifedipine) was 16 ± 0.6 mmHg and the “Intraocular pressure (mmHg) at the time (min): 0, average ± S.D.” value ([5]; Table 1, average ± S.D. of 4 rabbits, time 0 = 15 min before instillation (baseline), 50 μl eye-drops: 0.050% flunarizine, 0.056% verapamil, 0.051% diltiazem, 0.043% nifedipine) was 16.7 ± 1.5 mmHg. For the same compound, the “Intraocular pressure (mmHg) at the time (min): 30” value ([5]; Table 1, individual rabbit, right eye, 30 min after instillation, 50 μl eye-drops: 0.050% flunarizine, 0.056% verapamil, 0.051% diltiazem, 0.043% nifedipine) was 14 mmHg and 15 mmHg (2×) and 17 mmHg, the “Intraocular pressure (mmHg) at the time (min): 60” value ([5]; Table 1, individual rabbit, right eye, 60 min after instillation, 50 μl eye-drops: 0.050% flunarizine, 0.056% verapamil, 0.051% diltiazem, 0.043% nifedipine) was 14 mmHg (2×) and 17 mmHg and 13 mmHg and the “Intraocular pressure (mmHg) at the time (min): 90” value ([5]; Table 1, individual rabbit, right eye, 90 min after instillation, 50 μl eye-drops: 0.050% flunarizine, 0.056% verapamil, 0.051% diltiazem, 0.043% nifedipine) was 14 mmHg (2×) and 16 mmHg and 15 mmHg. For the same compound, the “Intraocular pressure (mmHg) at the time (min): 120” value ([5]; Table 1, individual rabbit, right eye, 120 min after instillation, 50 μl eye-drops: 0.050% flunarizine, 0.056% verapamil, 0.051% diltiazem, 0.043% nifedipine) was 15 mmHg (2×) and 16 mmHg (2×), the “Intraocular pressure (mmHg) at the time (min): 180” value ([5]; Table 1, individual rabbit, right eye, 180 min after instillation, 50 μl eye-drops: 0.050% flunarizine, 0.056% verapamil, 0.051% diltiazem, 0.043% nifedipine) was 15 mmHg and 16 mmHg and 17 mmHg (2×) and the “Intraocular pressure (mmHg) at the time (min): 240” value ([5]; Table 1, individual rabbit, right eye, 240 min after instillation, 50 μl eye-drops: 0.050% flunarizine, 0.056% verapamil, 0.051% diltiazem, 0.043% nifedipine) was 16 mmHg (2×) and 17 mmHg (2×). The “Intraocular pressure (mmHg) at the time (min): 0” value ([5]; Table 1, individual rabbit, right eye, time 0 = 15 min before instillation (baseline), 50 μl eye-drops: 0.050% flunarizine, 0.056% verapamil, 0.051% diltiazem, 0.043% nifedipine) was 15 mmHg and 16 mmHg and 18 mmHg (2×) and the IC50 (σ-1 receptors [6]) was over 10 µM.
